This is an account of results in PMC11619344 (Antimicrobial Agents and Chemotherapy, 2024).

Common to all, as to format: cell-based
Assay [1] has as its system ST258/KPC-35 mutant IMI 3.2. Nature of the assay: MIC, broth microdilution. To be noted: Klebsiella pneumoniae. For orientation: Broth dilution looks for growth in wells or tubes with falling amounts of substance.
Assay [2] relates to ST258/KPC-35 mutant IMI 1.2. Description: MIC, broth microdilution. Particulars: Klebsiella pneumoniae.
Assay [3] concerns ST512/KPC-31 mutant IMI 1.1. Description: MIC, broth microdilution. Particulars: Klebsiella pneumoniae.
Assay [4] relates to ST512/KPC-31 mutant IMI 2.2. Description: MIC, broth microdilution. To be noted: Klebsiella pneumoniae.
Assay [5] relates to ST512/KPC-31 mutant IMI 1.2. Description: MIC, broth microdilution. To be noted: Klebsiella pneumoniae.
Assay [6] has as its system ST258/KPC-35 mutant IMI 3.1. Description: MIC, broth microdilution. Particulars: Klebsiella pneumoniae.
Assay [7] relates to ST512/KPC-31 mutant IMI 3.1. Nature of the assay: MIC, broth microdilution. Particulars: Klebsiella pneumoniae.
Assay [8] deals with ST258/KPC-35 mutant IMI 1.1. Nature of the assay: MIC, broth microdilution. Particulars: Klebsiella pneumoniae.
The test system of assay [9] is ST258/KPC-35 mutant IMI 2.2. Description: MIC, broth microdilution. To be noted: Klebsiella pneumoniae.
Assay [10] relates to ST258/KPC-35 mutant IMI 2.1. Nature of the assay: MIC, broth microdilution. To be noted: Klebsiella pneumoniae.
Assay [11] has as its system ST512/KPC-31 mutant IMI 2.1. Description: MIC, broth microdilution. Particulars: Klebsiella pneumoniae.
Assay [12] relates to ST512/KPC-31 mutant IMI 3.2. Description: MIC, broth microdilution. To be noted: Klebsiella pneumoniae.
Assay [13] deals with E. coli HB4 KPC-3 D179N. Description: MIC of recombinant strains. Particulars: Escherichia coli, HB4KPC3D179N; E. coli HB4 expressing KPC-3 D179N in pUCP24. The method, then:
(§1) 14.0 (www.eucast.org/clinical_breakpoints).
(§2) Recombinant strains were selected in 10 mg/L of gentamicin-LB agar plates. The β-lactam MICs were determined for the transformants according to the above-described methodology.

In assay [14] the test system is E. coli HB4 KPC-31 (KPC-3 D179Y). Description: MIC of recombinant strains. Particulars: Escherichia coli; E. coli HB4 expressing KPC-31 (KPC-3 D179Y) in pUCP24. The method, then: as §1, §2
Assay [15] concerns E. coli HB4 KPC-3. Nature of the assay: MIC of recombinant strains. Particulars: Escherichia coli, HB4KPC3; E. coli HB4 expressing KPC-3 in pUCP24. Here is the method: as §1, §2
Assay [16] concerns E. coli HB4. Description: MIC of recombinant strains. To be noted: Escherichia coli; E. coli HB4 (OmpC- and OmpF-deficient), no KPC. Here is the method: as §1, §2
In assay [17] the test system is E. coli HB4 KPC-35 (KPC-2 L169P). Nature of the assay: MIC of recombinant strains. To be noted: Escherichia coli; E. coli HB4 expressing KPC-35 (KPC-2 L169P) in pUCP24. Here is the method: as §1, §2
The test system of assay [18] is E. coli HB4 KPC-2. Description: MIC of recombinant strains. Particulars: Escherichia coli, HB4KPC2; E. coli HB4 expressing KPC-2 in pUCP24. The method, then:
as §1, §2

Assay [19] relates to E. coli HB4 KPC-2 L169A. Nature of the assay: MIC of recombinant strains. To be noted: Escherichia coli, HB4KPC2L169A; E. coli HB4 expressing KPC-2 L169A in pUCP24. The method, then:
as §1, §2

The subject of assay [20] is E. coli HB4 KPC-2 L169T. Nature of the assay: MIC of recombinant strains. Particulars: Escherichia coli, HB4KPC2L169T; E. coli HB4 expressing KPC-2 L169T in pUCP24. Here is the method:
as §1, §2

Assay [21] concerns K. pneumoniae ST512/KPC-31 (KPC-3 D179Y) parental clinical isolate. Nature of the assay: MIC, broth microdilution. To be noted: Klebsiella pneumoniae.
Assay [22] concerns K. pneumoniae ST258/KPC-35 (KPC-2 L169P) parental clinical isolate. Description: MIC, broth microdilution. To be noted: Klebsiella pneumoniae.

Converted amounts (≈) assume the structure as drawn.

What is called MIC is the least concentration at which growth counts as inhibited. On to `CO/N=C(\C(=O)N[C@@H]1C(=O)N2C(C(=O)[O-])=C(C[N+]3(C)CCCC3)CS[C@H]12)c1csc(N)n1` [FEP, cefepime], for which the MIC in [1], in assay [2], in assay [3], in [4], in assay [5] and in assay [6] was more than 16 µg/mL throughout. Besides, the MIC in assay [7], in assay [8], in assay [9], in assay [10], in assay [11] and in assay [12] was more than 16 µg/mL throughout. Further, the MIC was 16 µg/mL in assay [13]; 32 µg/mL in [14]; 128 µg/mL in assay [15]; not above 0.5 µg/mL in [16]; 64 µg/mL in assay [17]; 256 µg/mL in [18]. Besides, the results for the MIC in assay [19] and in assay [20] were 64 µg/mL and 128 µg/mL, respectively.

In the case of `C[C@H]1[C@H](NC(=O)/C(=N\OC(C)(C)C(=O)O)c2csc(N)n2)C(=O)N1S(=O)(=O)O` [AZT, aztreonam], the MIC in [1], in assay [2], in [3], in assay [4], in [5] and in assay [6] was more than 16 µg/mL in each case. Further, the MIC in assay [7], in [8], in [9], in [10], in assay [11] and in [12] was more than 16 µg/mL in each case. Further, the MIC in [13] is 8 µg/mL; in assay [14], 4 µg/mL; in assay [15] it was 256 µg/mL; in assay [16], not above 0.5 µg/mL; in [17] it was 16 µg/mL; in assay [18], 512 µg/mL. Moreover, the MIC worked out at 64 µg/mL in assay [19] and 128 µg/mL in [20].

Regarding `C[C@@H](O)[C@H]1C(=O)N2C(C(=O)O)=C(S[C@@H]3CN[C@H](C(=O)Nc4cccc(C(=O)O)c4)C3)[C@H](C)[C@H]12` [ETP, ertapenem], the MIC in assay [1], in assay [2], in assay [3], in assay [4], in assay [5] and in assay [6] was more than 8 µg/mL each time. The MIC in assay [7], in assay [8], in assay [9], in assay [10], in [11] and in [12] was more than 8 µg/mL each time. Further, the MIC in [21] and in assay [22] was more than 8 µg/mL each time.

`CC(C)(O/N=C(\C(=O)N[C@@H]1C(=O)N2C(C(=O)[O-])=C(C[n+]3ccccc3)CS[C@H]12)c1csc(N)n1)C(=O)O` [CAZ, ceftazidime]: the MIC is 128 µg/mL (≈ 234 µM) in [1]; 256 µg/mL (≈ 468 µM) in [2]; more than 256 µg/mL in assay [3]; more than 256 µg/mL in assay [4]; more than 256 µg/mL in assay [5]; 64 µg/mL (≈ 117 µM) in [6]. The MIC is more than 256 µg/mL in assay [7]; 256 µg/mL (≈ 468 µM) in [8]; 128 µg/mL (≈ 234 µM) in [9]; 128 µg/mL (≈ 234 µM) in assay [10]; more than 256 µg/mL in assay [11]; more than 256 µg/mL in assay [12]. In addition, the MIC is more than 256 µg/mL in assay [21]; more than 256 µg/mL in [22]; more than 64 µg/mL in assay [13]; more than 64 µg/mL in [14]; more than 64 µg/mL in assay [15]; 1 µg/mL in [16]. The MIC in [17], in [18], in assay [19] and in [20] was more than 64 µg/mL throughout.

On to `NCC[C@H](O)C(=O)N[C@@H]1C[C@H](N)[C@@H](O[C@H]2O[C@H](CN)[C@@H](O)[C@H](O)[C@H]2O)[C@H](O)[C@H]1O[C@H]1O[C@H](CO)[C@@H](O)[C@H](N)[C@H]1O` [AMI, amikacin], for which the MIC in assay [1], in assay [2], in assay [3], in assay [4], in [5] and in assay [6] was more than 32 µg/mL in each case. In addition, the MIC in assay [7], in assay [8], in assay [9], in assay [10], in assay [11] and in [12] was more than 32 µg/mL throughout. Also, the MIC in assay [21] and in [22] was more than 32 µg/mL throughout.

Take `C[C@H]1COc2c(N3CCN(C)CC3)c(F)cc3c(=O)c(C(=O)O)cn1c23` [LEV, levofloxacin]: the MIC in assay [1], in assay [2], in assay [3], in assay [4], in [5] and in [6] was more than 8 µg/mL in each case. For the same compound, the MIC in assay [7], in [8], in [9], in [10], in assay [11] and in assay [12] was more than 8 µg/mL throughout. The MIC in [21] and in assay [22] was more than 8 µg/mL throughout.

For the compound `CNC(C)C1CCC(N)C(OC2C(N)CC(N)C(OC3OCC(C)(O)C(NC)C3O)C2O)O1` (stereo not shown) [GEN, gentamicin], the MIC in assay [1] amounted to 4 µg/mL (≈ 8.38 µM); in assay [2], 4 µg/mL (≈ 8.38 µM); in assay [3], 4 µg/mL (≈ 8.38 µM); in [4], 8 µg/mL (≈ 16.8 µM); in assay [5] it was 8 µg/mL (≈ 16.8 µM); in assay [6], 4 µg/mL (≈ 8.38 µM). Moreover, the MIC in assay [7], in assay [8], in assay [9], in [10], in [11] and in assay [12] was 4 µg/mL (≈ 8.38 µM) in each case. For the same compound, the MIC in [21] is 4 µg/mL (≈ 8.38 µM); in [22], not above 2 µg/mL.

On to `NC[C@H]1O[C@H](O[C@H]2[C@H](O)[C@@H](O[C@H]3O[C@H](CO)[C@@H](O)[C@H](N)[C@H]3O)[C@H](N)C[C@@H]2N)[C@H](N)C[C@@H]1O` [TOB, tobramycin], for which the MIC in assay [1], in assay [2], in assay [3], in assay [4], in assay [5] and in assay [6] was more than 8 µg/mL in each case. For the same compound, the MIC in assay [7], in assay [8], in assay [9], in assay [10], in assay [11] and in assay [12] was more than 8 µg/mL in each case. The MIC in assay [21] and in assay [22] was more than 8 µg/mL each time.

`C[C@@H](O)[C@H]1C(=O)N2C(C(=O)O)=C(S[C@@H]3CN[C@H](C(=O)N(C)C)C3)[C@H](C)[C@H]12` [MEM, meropenem]: the MIC in assay [1] was 64 µg/mL (≈ 167 µM); in assay [2], more than 64 µg/mL; in assay [3], more than 64 µg/mL; in assay [4], more than 64 µg/mL; in assay [5], more than 64 µg/mL; in [6], 64 µg/mL (≈ 167 µM). The MIC in [7] is 32 µg/mL (≈ 83.4 µM); in assay [8], more than 64 µg/mL; in assay [9] it was more than 64 µg/mL; in assay [10], more than 64 µg/mL; in assay [11], more than 64 µg/mL; in assay [12] it was 32 µg/mL (≈ 83.4 µM). The MIC in assay [21] is 4 µg/mL (≈ 10.4 µM); in assay [22] it was 4 µg/mL (≈ 10.4 µM); in assay [13], 0.25 µg/mL; in assay [14] it was 0.5 µg/mL; in assay [15], more than 64 µg/mL; in [16], not above 0.06 µg/mL. Also, the MIC is 2 µg/mL in assay [17], more than 64 µg/mL in assay [18], 16 µg/mL in [19] and 16 µg/mL in assay [20].
